Data taken from PMC9356039, “Multifunctional synthetic nano-chaperone for peptide folding and intracellular delivery” (Nature Communications, 2022).

What was measured:
[1] = CD spectroscopy, α-helicity by CONTIN-LL; format: physicochemical; settings: for helix1 / helix2 / helix % / strand1 / strand2 / total helix / turns / unordered: CONTINLL from CD spectra
Experimental: CD spectra were measured using a J-810 spectropolarimeter (JASCO, Japan). Spectra were recorded from 250 nm to 190 nm wavelength using a 1 cm path-length cuvette. Scans were repeated five times and averaged. Molar ellipticity was calculated per amino acid residue. The concentrations of SNCP and p53pep were 0.2 mg/mL and 20 μM, respectively. All sample suspensions were incubated at least for 2 days at room temperature before CD measurement. To perform temperature-dependent CD experiments, the spectra were recorded at 10 °C interval over a temperature range of 25 to 75 °C, with 30 min incubation time to reach equilibrium at each temperature. The α-helicity of peptides was calculated by using the CONTIN-LL algorithms provided from the DICHROWEB server.

Bcl2 in HepG2 cells = test: Western blot, Bcl2 protein level; format: cell-based, human
Experimental: Cells were lysed with Pro-PREP (IntronBio, Korea) according to the manufacturer’s protocol. The samples were centrifuged at 2000 × g and 4 °C for 15 min. The supernatant was collected to a 1.5 mL ep-tube and stored at −80 °C. After protein quantification using Pierce^TM BCA assay kit (Thermo Fisher Scientific, USA), the same amount of protein was diluted in water containing 5×loading buffer (Biosesang, Korea) and loaded on SDS-PAGE gel (Bio-rad, USA). After electrophoresis in Tris-Glycine SDS buffer at 80 V for 120 min, proteins in a gel were transferred to a nitrocellulose membrane (0.45 μm, Bio-rad, USA) in 1× Tris-Glycine Native Buffer (GenDEPOT, Korea) with 10% methanol at 90 V, and 4 °C for 90 min under stirring condition. The membrane was blocked with 5% milk to inhibit non-specific binding and immersed overnight at 4 °C in the presence of primary antibodies; GAPDH (1:2000, Abcam, USA), p53 (1:1000, Cell signaling, USA), MDM2 (1:1000, Cell signaling, USA), Bcl2 (1:1000, Cell signaling, USA) and CytC (1:1000, Cell signaling, USA). Anti-rabbit goat pAb, horseradish peroxidase (HRP)-linked antibody (1:5000, Abcam, USA) was used as a secondary antibody and the membrane was incubated for 1 h. After the reaction with the detection agent West Pico PLUS (Thermo Fisher Scientific, USA), bands of protein were monitored by a ImageQuant^TM LAS 4000 mini (GE Healthcare, USA). […]

HepG2 cells = test: Cellular uptake and intracellular distribution, fluorescence microscopy; format: cell-based, human; settings: SNCPs@st-p53pep 0.02 mg/mL or st-p53pep 2 μM, serum-free medium 4 h
Experimental: Human liver cancer cell line HepG2 were grown in DMEM containing 10% FBS and 1% penicillin/streptomycin at 37 °C in a humidified atmosphere of 5% CO2. HepG2 cells (1.2 × 10^5 cells/well) were seeded in a 4-well glass plate for 24 h. Then, SNCPs@st-p53pep (0.02 mg/mL) and st-p53pep alone (2 μM) were added to each well in a serum-free medium for 4 h. After incubation, the cells were carefully rinsed with PBS, and the medium was replaced with a serum-containing fresh medium. After the nucleus was stained with Hoechst 33342 staining kit by manufacturer’s protocol, bright field and fluorescence images were obtained by using a DeltaVision Elite Microscopy System (GE Healthcare, USA). To observe the distribution of SNCP8 and st-p53pep in cells, TAMRA-labeled SNCP8@FAM-labeled st-p53pep (0.25 mg/mL) was treated in the same manner instead of SNCP8@st-p53pep. And then, the Mander’s overlap coefficient (MOC) was calculated in the Image J program (ver. 1.52a) via the JACoP plugin to identify co-localization between fluorescence signals over time. […] The cell viability was determined using cell counting kit-8 (CCK-8) assay by monitoring absorbance at 450 and 670 nm wavelength measured using a microplate reader (Molecular Devices, Inc., USA). The EC50 values of SNCPs@st-p53pep were determined by the logistic curve-fitting method with Origin (OriginLab, USA).

For CC(C)C[C@@H]1NC(=O)[C@H](CC(C)C)NC(=O)[C@H](CCCNC(=N)N)NC(=O)[C@H](Cc2c[nH]c3ccccc23)NC(=O)[C@H](CC(C)C)NC(=O)[C@H](CC(N)=O)NC(=O)[C@H](NC(=O)[C@H](Cc2ccccc2)NC(=O)[C@@H](NC(=O)[C@H](CCC(N)=O)NC(=O)[C@H](CCC(N)=O)NC(=O)[C@H](CO)NC(=O)[C@H](CCC(N)=O)NC(=O)CNC(=O)CNC(=O)c2ccc3c(c2)C(=O)OC32c3ccc(O)cc3Oc3cc(O)ccc32)[C@@H](C)O)CCCCNC(=O)CCc2cn(nn2)CCC[C@@H](C(=O)N[C@@H](CCC(N)=O)C(=O)N[C@@H](CC(N)=O)C(N)=O)NC1=O [st-p53pep], the helix1 ([1]; 25 ℃) was 0.186, the helix2 ([1]; 25 ℃) was 0.16 and the helix % ([1]; 25 ℃) was 34.6%. The strand1 ([1]; 25 ℃) was 0.062, the strand2 ([1]; 25 ℃) was 0.054 and the total helix ([1]; 25 ℃) was 0.346. It also gave a turns ([1]; 25 ℃) of 0.123, an unordered ([1]; 25 ℃) of 0.415 and a helix1 ([1]; 35 ℃) of 0.176. For the same molecule, the helix2 ([1]; 35 ℃) was 0.154, the helix % ([1]; 35 ℃) was 33% and the strand1 ([1]; 35 ℃) was 0.059. The strand2 ([1]; 35 ℃) was 0.054, the total helix ([1]; 35 ℃) was 0.33 and the turns ([1]; 35 ℃) was 0.092. It also gave an unordered ([1]; 35 ℃) of 0.464, a helix1 ([1]; 45 ℃) of 0.187 and a helix2 ([1]; 45 ℃) of 0.158. For the same molecule, the helix % ([1]; 45 ℃) was 34.5%, the strand1 ([1]; 45 ℃) was 0.052 and the strand2 ([1]; 45 ℃) was 0.05. For the same molecule, the total helix ([1]; 45 ℃) was 0.345, the turns ([1]; 45 ℃) was 0.11 and the unordered ([1]; 45 ℃) was 0.444. For the same molecule, the helix1 ([1]; 55 ℃) was 0.186, the helix2 ([1]; 55 ℃) was 0.147 and the helix % ([1]; 55 ℃) was 33.3%. The strand1 ([1]; 55 ℃) was 0.057, the strand2 ([1]; 55 ℃) was 0.049 and the total helix ([1]; 55 ℃) was 0.333. The turns ([1]; 55 ℃) was 0.117, the unordered ([1]; 55 ℃) was 0.445 and the helix1 ([1]; 65 ℃) was 0.088. It also gave a helix2 ([1]; 65 ℃) of 0.108, a helix % ([1]; 65 ℃) of 19.6% and a strand1 ([1]; 65 ℃) of 0.14. It also gave a strand2 ([1]; 65 ℃) of 0.096, a total helix ([1]; 65 ℃) of 0.196 and a turns ([1]; 65 ℃) of 0.134. The unordered ([1]; 65 ℃) was 0.433, the helix1 ([1]; 75 ℃) was 0.041 and the helix2 ([1]; 75 ℃) was 0.06. It also gave a helix % ([1]; 75 ℃) of 10.1%, a strand1 ([1]; 75 ℃) of 0.132 and a strand2 ([1]; 75 ℃) of 0.079. For the same molecule, the total helix ([1]; 75 ℃) was 0.101, the turns ([1]; 75 ℃) was 0.348 and the unordered ([1]; 75 ℃) was 0.341. The α-helicity ([1]; extracted peptide after re-encapsulation in SNCP8) was 73.4%, the α-helicity ([1]; peptide extracted from SNCP8@st-p53pep) was 34.6% and the “Bcl2 level relative to Control” value (Bcl2 in HepG2 cells; /GAPDH, Control = 1) was 1.005. The “Bcl2 rel. (/GAPDH)” value (Bcl2 in HepG2 cells; intensity divided by GAPDH) was 0.9585 and the “cellular uptake: green FAM fluorescence in cells (in words)” value (HepG2 cells) was “No fluorescence”.
